Target: human GPR17 short isoform (Homo sapiens, UniProt Q13304)
Experiment: GPR17 cAMP assay (hGPR17 cAMP, TR-FRET, antagonist mode)
Assay type: cell-based
Details: CHO-K1 cells stably expressing human GPR17 short isoform; EC80 of agonist MDL29,951; forskolin 15 μM; 30 min at room temperature
Protocol: CHO-K1 cells stably expressing vector containing untagged human GPR17 short isoform (Roche) were cultured at 37° C./5% CO2 in DMEM (Dulbecco's Modified Eagle Medium): F-12 (1:1) supplemented with 10% foetal bovine serum and 400 μg/ml Geneticin.
Changes in intracellular cyclic adenosine monophosphate (cAMP) levels were quantified using the Nano-TRF Detection Assay kit (Roche Diagnostics, Cat. No. 05214386001). This assay allows for direct cAMP quantification in a homogeneous solution. CAMP is detected based on time-resolved fluorescence energy transfer (TR-FRET) and competitive binding of ruthenylated cAMP and endogenous cAMP to an anti-cAMP monoclonal antibody labeled with AlexaFluor-700. The Ruthenium complex serves as the FRET donor and transfers energy to AlexaFluor-700. The FRET signal is inversely proportional to the CAMP concentration.
CHO-GPR17S cells were detached with Accutase and resuspended in assay buffer consisting of Hank's Balanced Salt Solution (HBSS), 10 mM HEPES (4-(2-hydroxyethyl) piperazine-1-ethanesulfonic acid solution) and 0.1% bovine serum albumin (pH 7.4). The cells were seeded in black 384-well plates (Corning) at a density of 10′000 cells/20 μl assay buffer until the addition of compounds.
Test antagonist compounds were serially diluted in dimethyl sulfoxide (DMSO) and spotted in 384-well plates. The compounds were then diluted in HBSS buffer supplemented with an EC80 concentration of MDL29,951 (3-(2-Carboxy-4,6-dichloroindol-3-yl) propionic acid) (GPR17 agonist) plus 3-Isobutyl-1-methylxanthine (IBMX) (0.5 mM final concentration) and added to the cells at room temperature. Forskolin (15 μM final concentration) was added 5 minutes after the test compounds and the cells were incubated at room temperature for 30 minutes. The assay was stopped by adding cAMP detection mix (containing detergents for cell lysis) for 90 minutes at room temperature.
Cellular cAMP was measured using a Paradigm reader (Molecular Devices). The raw data was used to calculate the FRET signal based on the assay's P-factor as per cAMP kit instructions. The data was normalized to the maximal activity of a reference antagonist and dose response curves were fitted to the percent activity of the test compounds using a sigmoidal dose response model (Genedata Screener).

Sequence of human GPR17 short isoform (Q13304 29-367): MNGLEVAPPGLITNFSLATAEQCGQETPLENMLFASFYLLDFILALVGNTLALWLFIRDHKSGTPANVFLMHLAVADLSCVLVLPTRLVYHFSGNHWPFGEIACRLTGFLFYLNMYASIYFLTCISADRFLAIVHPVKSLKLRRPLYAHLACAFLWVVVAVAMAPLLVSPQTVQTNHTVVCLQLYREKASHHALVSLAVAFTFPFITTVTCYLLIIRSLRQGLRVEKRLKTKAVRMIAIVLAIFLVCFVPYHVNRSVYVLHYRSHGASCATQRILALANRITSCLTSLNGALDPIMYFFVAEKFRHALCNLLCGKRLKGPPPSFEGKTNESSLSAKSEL

Compound | IC50 [nM]
COc1nc(OCC(F)F)c(F)cc1NS(=O)(=O)c1cnn2cc(Br)ccc12 [Example 78, 6-bromo-N-[6-(2,2-difluoroethoxy)-5-fluoro-2-methoxy-3-pyridyl]pyrazolo[1,5-a]pyridine-3-sulfonamide] | 10
COc1c(Cl)ccn2c(S(=O)(=O)Nc3cc(F)c(CC#N)cc3F)cnc12 [Example 61, 7-chloro-N-[4-(cyanomethyl)-2,5-difluoro-phenyl]-8-methoxy-imidazo[1,2-a]pyridine-3-sulfonamide] | 181
COc1nc(OCC(F)F)c(F)cc1NS(=O)(=O)c1cnc2n1CC(C)C2 (stereo not shown) [Example 72, N-[6-(2,2-difluoroethoxy)-5-fluoro-2-methoxy-3-pyridyl]-6-methyl-6,7-dihydro-5H-pyrrol[1,2-a]imidazole-3-sulfonamide] | 449
COc1nc(OCC(F)F)c(F)cc1NS(=O)(=O)c1cnc2n1CCC(C(F)(F)F)C2 (stereo not shown) [Example 41, N-[6-(2,2-difluoroethoxy)-5-fluoro-2-methoxy-3-pyridyl]-7-(trifluoromethyl)-5,6,7,8-tetrahydroimidazo[1,2-a]pyridine-3-sulfonamide] | 66
COc1nc(OCC(F)F)c(F)cc1NS(=O)(=O)c1cnc2cc(C(F)(F)F)ccn12 [Example 31, N-[6-(2,2-difluoroethoxy)-5-fluoro-2-methoxy-3-pyridyl]-7-(trifluoromethyl)imidazo[1,2-a]pyridine-3-sulfonamide] | 38
COc1nc(C2CC2)c(F)cc1NS(=O)(=O)c1cnc2cc(Cl)ccn12 [Example 25, 7-chloro-N-(6-cyclopropyl-5-fluoro-2-methoxy-3-pyridyl)imidazo[1,2-a]pyridine-3-sulfonamide] | 23
COc1nc(OC(F)F)c(F)cc1NS(=O)(=O)c1cnc2nc(C3CC3)ccn12 [Example 28, 7-cyclopropyl-N-[6-(difluoromethoxy)-5-fluoro-2-methoxy-3-pyridyl]imidazo[1,2-a]pyrimidine-3-sulfonamide] | 31
COc1nc(OCC(F)F)c(F)cc1NS(=O)(=O)c1cnn2c(C#N)c(C)ccc12 [Example 84, 7-cyano-N-[6-(2,2-difluoroethoxy)-5-fluoro-2-methoxy-3-pyridyl]-6-methyl-pyrazolo[1,5-a]pyridine-3-sulfonamide] | 130
COc1nc(NS(=O)(=O)c2cnc3nc(C4CC4)ccn23)c(F)cc1CC(F)F [Example 36, 7-cyclopropyl-N-[5-(2,2-difluoroethyl)-3-fluoro-6-methoxy-2-pyridyl]imidazo[1,2-a]pyrimidine-3-sulfonamide] | 52
COc1c(C)ccn2c(S(=O)(=O)Nc3cc(F)c(CC#N)cc3F)cnc12 [Example 32, N-[4-(cyanomethyl)-2,5-difluoro-phenyl]-8-methoxy-7-methyl-imidazo[1,2-a]pyridine-3-sulfonamide] | 40
COc1ccn2c(S(=O)(=O)Nc3cc(F)c(OCC(F)F)nc3OC)cnc2c1 [Example 15, N-[6-(2,2-difluoroethoxy)-5-fluoro-2-methoxy-3-pyridyl]-7-methoxy-imidazo[1,2-a]pyridine-3-sulfonamide] | 18
COc1nc(OCC(F)F)c(F)cc1NS(=O)(=O)c1cnc2cc(C#N)ccn12 [Example 59, 7-cyano-N-[6-(2,2-difluoroethoxy)-5-fluoro-2-methoxy-3-pyridyl]imidazo[1,2-a]pyridine-3-sulfonamide] | 176
COc1nc(CCC(F)F)c(F)cc1NS(=O)(=O)c1cnc2cc(Cl)ccn12 [Example 9, 7-chloro-N-[6-(3,3-difluoropropyl)-5-fluoro-2-methoxy-3-pyridyl]imidazo[1,2-a]pyridine-3-sulfonamide] | 11
COc1ccn2c(S(=O)(=O)Nc3cc(F)c(CC#N)cc3F)cnc2c1 [Example 55, N-[4-(cyanomethyl)-2,5-difluoro-phenyl]-7-methoxy-imidazo[1,2-a]pyridine-3-sulfonamide] | 116
COc1nc(NS(=O)(=O)c2cnc3cc(C4COC4)ccn23)c(F)cc1CC(F)F [Example 102, N-[5-(2,2-difluoroethyl)-3-fluoro-6-methoxy-2-pyridyl]-7-(oxetan-3-yl)imidazo[1,2-a]pyridine-3-sulfonamide] | 201
COc1nc(NS(=O)(=O)c2cnc3cc(Cl)ccn23)ncc1OCCF [Example 74, 7-chloro-N-[5-(2-fluoroethoxy)-4-methoxy-pyrimidin-2-yl]imidazo[1,2-a]pyridine-3-sulfonamide] | 897

Compound | IC50 [nM]
COc1nc(OCC(F)F)c(F)cc1NS(=O)(=O)c1cnc2n1CC[C@H](C)C2 [Example 109, (7S)—N-[6-(2,2-difluoroethoxy)-5-fluoro-2-methoxy-3-pyridyl]-7-methyl-5,6,7,8-tetrahydroimidazo[1,2-a]pyridine-3-sulfonamide] | 35
COc1ccn2c(S(=O)(=O)Nc3cc(F)c(OCC(F)F)nc3OC)cnc2n1 [Example 37, N-[6-(2,2-difluoroethoxy)-5-fluoro-2-methoxy-3-pyridyl]-7-methoxy-imidazo[1,2-a]pyrimidine-3-sulfonamide] | 56
COc1nc(NS(=O)(=O)c2cnc3cc(Cl)ccn23)c(F)cc1CC(F)F [Example 24, 7-chloro-N-[5-(2,2-difluoroethyl)-3-fluoro-6-methoxy-2-pyridyl]imidazo[1,2-a]pyridine-3-sulfonamide] | 23
O=S(=O)(Nc1cc(F)c(OC(F)F)nc1OC(F)F)c1cnc2nc(C3CC3)ccn12 [Example 56, N-[2,6-bis(difluoromethoxy)-5-fluoro-3-pyridyl]-7-cyclopropyl-imidazo[1,2-a]pyrimidine-3-sulfonamide] | 132
COc1nc(OCC(F)F)c(F)cc1NS(=O)(=O)c1cnc2cc(C(C)(C)O)ccn12 [Example 106, N-[6-(2,2-difluoroethoxy)-5-fluoro-2-methoxy-3-pyridyl]-7-(1-hydroxy-1-methyl-ethyl)imidazo[1,2-a]pyridine-3-sulfonamide] | 38
COc1nc(OCC(F)F)c(F)cc1NS(=O)(=O)c1cnc2n1CCC(OC)C2 (stereo not shown) [Example 62, N-[6-(2,2-difluoroethoxy)-5-fluoro-2-methoxy-3-pyridyl]-7-methoxy-5,6,7,8-tetrahydroimidazo[1,2-a]pyridine-3-sulfonamide] | 217
COc1nc(OCC(F)F)c(F)cc1NS(=O)(=O)c1cnc2nc(Br)ccn12 [Example 105, 7-bromo-N-[6-(2,2-difluoroethoxy)-5-fluoro-2-methoxy-3-pyridyl]imidazo[1,2-a]pyrimidine-3-sulfonamide] | 27
Cc1ccn2c(S(=O)(=O)Nc3cc(F)c(OC(F)F)nc3OC(F)F)cnc2c1C#N [Example 66, N-[2,6-bis(difluoromethoxy)-5-fluoro-3-pyridyl]-8-cyano-7-methyl-imidazo[1,2-a]pyridine-3-sulfonamide] | 289
COc1nc(CC(F)F)c(F)cc1NS(=O)(=O)c1cnc2cc(Cl)ccn12 [Example 11, 7-chloro-N-[6-(2,2-difluoroethyl)-5-fluoro-2-methoxy-3-pyridyl]imidazo[1,2-a]pyridine-3-sulfonamide] | 14
COc1nc(NS(=O)(=O)c2cnn3cc(Br)ccc23)c(F)cc1OCC(F)F [Example 81, 6-bromo-N-[5-(2,2-difluoroethoxy)-3-fluoro-6-methoxy-2-pyridyl]pyrazolo[1,5-a]pyridine-3-sulfonamide] | 49
COc1nc(OCC(F)F)c(F)cc1NS(=O)(=O)c1cnc2cc(C)ccn12 [Example 2, N-[6-(2,2-difluoroethoxy)-5-fluoro-2-methoxy-3-pyridyl]-7-methyl-imidazo[1,2-a]pyridine-3-sulfonamide] | 7
COc1nc(OCC(F)F)c(F)cc1NS(=O)(=O)c1cnc2n1CCCC2C (stereo not shown) [Example 50, N-[6-(2,2-difluoroethoxy)-5-fluoro-2-methoxy-3-pyridyl]-8-methyl-5,6,7,8-tetrahydroimidazo[1,2-a]pyridine-3-sulfonamide] | 98
COc1nc(NS(=O)(=O)c2cnc3cc(Cl)ccn23)nc(OC)c1OCCF [Example 89, 7-chloro-N-[5-(2-fluoroethoxy)-4,6-dimethoxy-pyrimidin-2-yl]imidazo[1,2-a]pyridine-3-sulfonamide] | 139
COc1nc(OC(F)F)c(F)cc1NS(=O)(=O)c1cnc2cc(C)ccn12 [Example 13, N-[6-(difluoromethoxy)-5-fluoro-2-methoxy-3-pyridyl]-7-methyl-imidazo[1,2-a]pyridine-3-sulfonamide] | 18
N#CCc1cc(F)c(NS(=O)(=O)c2cnc3c(F)c(Cl)ccn23)cc1F [Example 68, 7-chloro-N-[4-(cyanomethyl)-2,5-difluoro-phenyl]-8-fluoro-imidazo[1,2-a]pyridine-3-sulfonamide] | 329

Reference: patent US20260242372A1, “NOVEL IMIDAZOPYRIDINE AND PYRAZOLOPYRIDINE SULFONAMIDE DERIVATIVES” (Hoffmann-La Roche Inc., priority 2022, published 2026)
